In patent US6613757B1, “COMBINATION OF PROSTACYCLIN WITH AN ESTROGEN OR PROGESTIN FOR THE PREVENTION AND TREATMENT OF ATHEROSCLEROTIC VASCULAR DISEASE INCLUDING PREECLAMPSIA AND FOR THE TREATMENT OF HYPERTENSION, AND FOR HORMONE REPLACEMENT THERAPY” (Board of Regents, The University of Texas System, priority 1994, dated 2003):
“Also recorded” adds a separate entry of the source.

Experiments:
[1] = test system: preeclamptic rats (L-NAME); test: Blood pressure in L-NAME-induced preeclampsia model, pregnant and postpartum rats; format: in vivo, rat; settings: for post-partum increase in blood pressure: R 5020 5 mg/animal/day; for blood pressure in the postpartum period: preeclamptic rats, L-NAME 25 mg/animal/day s.c. infusion plus cicaprost
Protocol: These symptoms are related to the decrease in vascular resistance and placental perfusion. […] Preeclampsia was induced with an nitric oxide inhibitor L-NAME (25 mg/animal/day, s.c. infusion).

pregnant guinea pigs = test: Inhibition of nitric oxide synthesis during pregnancy in guinea pigs; format: in vivo, guinea pig; settings: unreported studies
Source text: There is also evidence that prostacyclin production is decreased in preeclampsia. In a normal pregnancy there is an approximately 5-10-fold increase in prostacyclin production compared to the non-pregnant state (Goodman 1982, Walsh 1985, Fitzgerald 1,987). In contrast, there is a decreased production of prostacyclin in maternal, placental and umbilical cord vessels and in placental cotyledons (Remuzzi 1980, […] 1984, Walsh 1985) in preeclampsia. An imbalance in the ratio of thromboxane A2 to prostacyclin in preeclampsia has been proposed as a major pathological mechanism in preeclampsia (Walsh 1988, Fitzgerald 1987, Friedman 1988). Other experimental studies (unreported) in pregnant rats and guinea pigs indicate that nitric oxide deficiency is the primary event in preeclampsia.

L-NAME-treated male rats = test: L-NAME-induced hypertension in male rats; format: in vivo, rat
Protocol: (§1) FIG. 2 provides further evidence that progesterone can induce mechanisms which compensate the L-NAME-produced hypertension. This study was performed in male rats, showing pregnancy is not essential for this effect.

cholesterol-fed rabbits = settings: cited from earlier work
[2] = in vivo; cited from earlier work
[3] = test system: preeclamptic rats (L-NAME); test: Fetal weight and fetal mortality in L-NAME-treated pregnant rats; format: in vivo, rat; settings: iloprost plus L-NAME vs L-NAME-treated group
Source text: The unexpected results of the studies described below indicate that the response of blood vessels to prostacyclins and subsequent blood pressure lowering effect is controlled by progesterone. […] These symptoms are related to the decrease in vascular resistance and placental perfusion. […] Thus, the condition of pregnancy and the progestin treatment highly increase the responsiveness of blood vessels to exogenous prostacyclin. The increased response of blood vessels results in the lowering of the effective dose of prostacyclin analogs and subsequently in the reduction of side effects.
as §1

[4] = test system: microvascular arteriolar endothelium; settings: cited from earlier work
[5] = intravenous use; cited from earlier work
placental blood vessels = settings: in vitro; cited from earlier work
sheep = settings: infusion; cited from earlier work
humans = settings: infusion; cited from earlier work
[6] = test system: women with severe preeclampsia; settings: cited from earlier work
[7] = test system: cases of severe early-onset fetal growth retardation; settings: 2 cases, intravenous, 4 ng/kg/min; cited from earlier work

**Q.** For `COC(=O)[C@@H](N)CCCNC(=N)N[N+](=O)[O-]` [L-NAME], which “signs and symptoms of preeclampsia (hypertension, proteinuria, fetal growth retardation)” value ([1]; pregnant rats) is on record?
**A.** caused the classical symptoms hypertension, proteinuria and fetal growth retardation; also recorded: produces signs and symptoms of preeclampsia

**Q.** What about the “classical symptoms hypertension, proteinuria and fetal growth retardation” value (pregnant guinea pigs) of the same compound?
**A.** caused the classical symptoms hypertension, proteinuria and fetal growth retardation

**Q.** With `CCC(=O)[C@@]1(C)CC[C@H]2[C@@H]3CCC4=CC(=O)CCC4=C3CC[C@@]21C` [R 5020, promegestone] as the compound, how does the “post-partum increase in blood pressure” value ([1]; iloprost plus L-NAME, FIG. 4) read?
**A.** dramatically decrease the post-partum increase in blood pressure

**Q.** And the “post-partum increase in blood pressure” value ([1]; iloprost plus L-NAME, FIG. 4, listed as R5020)?
**A.** restores the efficacy of iloprost/cicaprost to lower blood pressure

**Q.** And the “blood pressure in the postpartum period” value ([1]; FIG. 1)?
**A.** lowers blood pressure; also recorded: restores the postpartum decrease in the efficacy of cicaprost to lower blood pressure

**Q.** And the “blood pressure in the postpartum period” value ([1]; FIG. 1, listed as R5020)?
**A.** restores the efficacy of iloprost/cicaprost to lower blood pressure

**Q.** And the L-NAME-induced hypertension (L-NAME-treated male rats; male rats, 0.5 mg/animal/day s.c., FIG. 2)?
**A.** reduces the L-NAME-induced hypertension

**Q.** Which “blood pressure during pregnancy (prepartum)” value ([1]; cicaprost plus L-NAME, progesterone levels high, FIG. 1) does the source give for `CCC#CC[C@H](C)[C@H](O)C#C[C@@H]1[C@H]2C/C(=C/COCC(=O)O)C[C@H]2C[C@H]1O` [cicaprost] here?
**A.** greater in late pregnancy; also recorded: a fall in blood pressure

**Q.** And the blood pressure postpartum ([1]; cicaprost plus L-NAME, progesterone levels low, FIG. 1)?
**A.** rapid increase in blood pressure; also recorded: an increase

**Q.** And the “aortic atheromatous plaque formation” value (cholesterol-fed rabbits; oral, cholesterol-fed rabbits)?
**A.** reduced aortic atheromatous plaque formation

**Q.** What about the “hypercholesterolemia-induced impairment of endothelium-dependent relaxation” value (cholesterol-fed rabbits; oral, cholesterol-fed rabbits) of the same compound?
**A.** partially prevented hypercholesterolemia-induced impairment of endothelium-dependent relaxation

**Q.** And the “hypercholesterolemia-induced impairment of coronary vasodilatation” value (cholesterol-fed rabbits; oral, rabbits)?
**A.** beneficial effect on the hypercholesterolemia-induced impairment of coronary vasodilatation

**Q.** What about the “hypercholesterolemia-induced platelet and neutrophil hyperactivity” value (cholesterol-fed rabbits; rabbits) of the same compound?
**A.** reduced hypercholesterolemia-induced platelet and neutrophil hyperactivity

**Q.** What about the bioavailability [2] of the same compound?
**A.** high bioavailability

**Q.** And the duration of action [2]?
**A.** prolonged duration of action

**Q.** What does the source list for `CC#CCC(C)[C@H](O)/C=C/[C@@H]1[C@H]2C/C(=C/CCCC(=O)O)C[C@H]2C[C@H]1O` (stereo partly shown) [iloprost]?
**A.** L-NAME-induced hypertension during pregnancy ([1]; iloprost plus L-NAME, progesterone levels high, FIG. 4): greater in late pregnancy; also recorded: fully reverses the L-NAME-induced hypertension; L-NAME-induced fetal mortality ([3]; FIG. 5 lower panel): reduces the L-NAME-induced fetal mortality; also recorded: fetal mortality decreased; L-NAME-induced fetal growth retardation (fetal weight) ([3]; FIG. 5 upper panel): partially reverses the L-NAME-induced fetal growth retardation; also recorded: fetal weight increased; damage of microvascular arteriolar endothelium by cyclosporin [4]: protect microvascular arteriolar endothelium from damage by cyclosporin; systemic blood pressure [5]: marked fall in systemic blood pressure

**Q.** For `CC(=O)[C@H]1CC[C@H]2[C@@H]3CCC4=CC(=O)CC[C@]4(C)[C@H]3CC[C@]12C` [progesterone], which blood pressure (L-NAME-treated male rats; L-NAME-treated male rats) is on record?
**A.** partially lowers blood pressure

**Q.** Which results are given for `CCCCC[C@H](O)/C=C/[C@@H]1[C@H]2C/C(=C/CCCC(=O)O)O[C@H]2C[C@H]1O` [prostacyclin]?
**A.** relaxation of placental blood vessels (placental blood vessels): consistently relaxes placental blood vessels; placental perfusion (sheep): did not result in the increase in placental perfusion; also recorded: a decrease of placental perfusion; placental perfusion (humans): did not result in the increase in placental perfusion; babies survived ([6]; 7 women, 4-8 ng/kg/min i.v.): 4/7; fetal effects during treatment ([6]; 7 women, 4-8 ng/kg/min i.v.): Fetal bradycardia was observed; also recorded: two fetuses died during prostacyclin infusion; blood pressure during prostacyclin infusion ([6]; 7 women, 4-8 ng/kg/min, 5 h to 11 days): rapid decrease in blood pressure; uteroplacental blood flow ([6]; steal phenomenon): decreased uteroplacental blood flow; outcome of attempt to promote fetal growth [7]: intrauterine death in each case; duration of action [2]: short duration of action; systemic blood pressure [5]: marked fall in systemic blood pressure
